In patent US4191780A, “Bromhexine derivatives and process for making same” (priority 1978, dated 1980):
Entries after “also recorded” stand apart in the source; their conditions may differ.

Legend:
[1] = Long-term toxicity in rats: mortality, pathology and general state
Description: Long-term toxicity (16 weeks) of IFT 1026 is tested in comparison to the parent compound (Bromhexine).

[2] = Long-term toxicity in rats (16 weeks): mean body weight; format: in vivo
Source text: Effect of daily oral administration of various doses of
IFT 1026 and Bromhexine on mean body weight of rats.

[3] = Long-term toxicity in rats: biochemical parameters; format: in vivo, rat; settings: daily oral 250 mg/kg Bromhexine, 350 mg/kg IFT 1026
[4] = Long-term toxicity in rats: hematological parameters; format: in vivo, rat; settings: daily oral Bromhexine 250 mg/kg, IFT 1026 350 mg/kg
Description: The hematological and biochemical values relating to the groups under treament with the above reported doses are shown in Tables Nos. 4 and 5. These values are virtually the same for both treated and control animals.
Effect of daily oral administration of Bromhexine 250 mg/kg
and IFT 1026 350 mg/kg on the hematological parameters in […]

[5] = tested on: Cough elicited by 15% citric acid spray; test: Antitussive activity in mice, citric acid spray cough; format: in vivo; settings: Mus musculus, oral, 1 hour after administration, confidence limits P = 0.05
Description: (§1) (6) Antitussive effect in Guinea-pigs and mice
(§2) Cough is elicited by 15% citric acid spray in both species, according to the method by Harsany et al. (Boll. Chim. Farm. 112, 691, 1973). The effect was tested 1 hour after oral administration and 30 min. after intraperitoneal application of the antitussive agents on mice and Guinea-pigs respectively.
(§3) ED50 values of the drugs are computed by the method of Litchfield and Wilcoxon (Litchfield, J. T. Jr., and Wilcoxon F., J. Pharmacol. exp. Ther. 96,99--1949).

[6] = tested on: Pain induced by a physical stimulation; test: Hot-plate Test (Eddy and Leimbach): pain induced by a physical stimulation; format: in vivo, mice; settings: mouse, 300 mg/kg oral, plate at 57° C.
Description: (§4) Two test methods are used for establishing the action of Bromhexine and IFT 1026 on noci-ceptive stimuli in mice.
(§5) (b) Pain induced by a physical stimulation according to the hot-plate test technique by Eddy and Leimbach (Eddy, N. B. and Leimbach, O., J. Pharmacol. exp.Ther. 107, 383--1953). The temperature of the plate was kept at 57° C. Groups of 12 mice are treated as described under (a) above. The reaction times are measured 15 min. before treatment (Ro) and 4 times after the administration (every 15 min). Only the maximal response is taken into account (Rmax).

[7] = tested on: Pain induced by a chemical stimulus; test: Siegmund Test: pain induced by a chemical stimulus (acetic acid writhing); format: in vivo, mice; settings: mouse, 300 mg/kg oral
Description: as §4
(§6) (a) Pain induced by a chemical stimulus according to the method of Siegmund (Siegmund E., Cadmier, R., and Lu, G. Proc. Soc. exp. Biol. N.Y. 95, 729--1957). The mice distributed at random into groups of 10 animals, are deprived of solid food for the 18-hour period prior to the test. […] Thirty minutes after treatment the mice are injected i.p. with 0.1 ml/10 g of a 1.5% acetic acid solution. The writhing is recorded for a 20 min. period following this i.p. injection.

noci-ceptive stimuli = test: Study of analgesic action on mice (both tests); format: in vivo; settings: 300 mg/kg oral
Description: as §4, §6, §5

[8] = Eight-day toxicity studies in mice, lethality (i.p.); format: in vivo; settings: for Total number of deaths: 8 days
Source text: Eight-day toxicity studies of IFT 1026 and Bromhexine in mice.

[9] = tested on: Cough elicited by 15% citric acid spray; test: Antitussive activity in Guinea-pigs, citric acid spray cough; format: in vivo; settings: Cavia porcellus, ip, 0.5 h, intraperitoneal, 30 min. after application, confidence limits P = 0.05
Description: as §1, §2, §3

[10] = Bromsulphtalein (BSP) clearance in rats treated with the lower dose; format: in vivo; settings: 30 min after 50 mg/kg BSP i.v., lower dose of drug
Description: The possibility to use BSP for the diagnosis of lesions in liver parenchyma is well known. Bromsulphtalein (BSP) clearance was made according to Carpi and Parenti (Carpi, C. and M. A. Parenti, Il Farmaco, Ed. Pr. vol. 17, page 45, 1962). Thirty minutes after the i.v. administration of 50 mg/kg BSP to control rats, the mean plasma level of the dyestuff is 80±12 mcg/ml.
% of rate showing BSP plasma levels greater than 80 mcg/ml
(control values) and 160 mcg/ml (two-fold control values)

[11] = Long-term toxicity in rats: organ weights at necropsy; format: in vivo; settings: fresh weight, daily oral 250 mg/kg Bromhexine, 350 mg/kg IFT 1026
Description: Effect of daily oral administration of 250 mg/kg Bromhexine and 350 mg/kg
organ weights of rats, expressed as grams of fresh weight.

COc1ccccc1OCC(=O)Nc1c(Br)cc(Br)cc1CN(C)C1CCCCC1 [IFT 1026, N-(2-guaiacol-glycolyl-amino-3,5-dibromobenzyl)N-cyclohexylmethylamine]
animals that died during the study ([1]; rat, in vivo): 2 animals | changes in general state of health, behaviour, body weight, blood and viscera ([1]; rat, in vivo): no significant changes | long-term toxicity in the rats ([1]; rat, in vivo): weak | toxicity compared with Bromhexine (parent compound) ([1]; rats, subacute and long-term administration): less toxic than Bromhexine; also recorded: less toxic than the parent compound | body weight, mean ± SE ([2]; females, 70 mg/kg daily oral, 0 days): 125 ± 6 g | body weight, mean ± SE ([2]; females, 70 mg/kg daily oral, 21 days): 181 ± 5 g | body weight, mean ± SE ([2]; females, 70 mg/kg daily oral, 45 days): 218 ± 2 g | body weight, mean ± SE ([2]; females, 70 mg/kg daily oral, 60 days): 242 ± 2 g | body weight, mean ± SE ([2]; females, 350 mg/kg daily oral, 0 days): 118 ± 2 g | body weight, mean ± SE ([2]; females, 350 mg/kg daily oral, 21 days): 179 ± 5 g | body weight, mean ± SE ([2]; females, 350 mg/kg daily oral, 45 days): 225 ± 7 g | body weight, mean ± SE ([2]; females, 350 mg/kg daily oral, 60 days): 232 ± 10 g | body weight, mean ± SE ([2]; females, 1400 mg/kg daily oral, 0 days): 122 ± 5 g | body weight, mean ± SE ([2]; females, 1400 mg/kg daily oral, 21 days): 173 ± 7 g | body weight, mean ± SE ([2]; females, 1400 mg/kg daily oral, 45 days): 211 ± 5 g | body weight, mean ± SE ([2]; females, 1400 mg/kg daily oral, 60 days): 221 ± 8 g | body weight, mean ± SE ([2]; males, 70 mg/kg daily oral, 0 days): 117 ± 7 g | body weight, mean ± SE ([2]; males, 70 mg/kg daily oral, 21 days): 220 ± 4 g | body weight, mean ± SE ([2]; males, 70 mg/kg daily oral, 45 days): 310 ± 4 g | body weight, mean ± SE ([2]; males, 70 mg/kg daily oral, 60 days): 370 ± 6 g | body weight, mean ± SE ([2]; males, 350 mg/kg daily oral, 0 days): 123 ± 8 g | body weight, mean ± SE ([2]; males, 350 mg/kg daily oral, 21 days): 226 ± 6 g | body weight, mean ± SE ([2]; males, 350 mg/kg daily oral, 45 days): 290 ± 7 g | body weight, mean ± SE ([2]; males, 350 mg/kg daily oral, 60 days): 368 ± 4 g | body weight, mean ± SE ([2]; males, 1400 mg/kg daily oral, 0 days): 121 ± 5 g | body weight, mean ± SE ([2]; males, 1400 mg/kg daily oral, 21 days): 222 ± 7 g | body weight, mean ± SE ([2]; males, 1400 mg/kg daily oral, 45 days): 295 ± 8 g | body weight, mean ± SE ([2]; males, 1400 mg/kg daily oral, 60 days): 365 ± 9 g | variations in the body weights versus control group ([2]; rats, exception: Bromhexine 1000 mg/kg/day): no significant variations | A/G ratio (Albumin/Globulin), mean ± SE ([3]; females): 2.6 ± 0.3 | BUN, mean ± SE ([3]; females): 41.1 ± 2 mg % | GLUCOSE, mean ± SE ([3]; females): 85.9 ± 8 mg % | SGOT, mean ± SE ([3]; females): 25.1 ± 0.3 Units/ml | SGPT, mean ± SE ([3]; females): 13.2 ± 0.4 Units/ml | TOTAL PROTEIN, mean ± SE ([3]; females): 30.6 ± 2.4 mg/mL | A/G ratio (Albumin/Globulin), mean ± SE ([3]; males): 2.2 ± 0.1 | BUN, mean ± SE ([3]; males): 39.9 ± 5 mg % | GLUCOSE, mean ± SE ([3]; males): 73.7 ± 5 mg % | SGOT, mean ± SE ([3]; males): 24.5 ± 0.6 Units/ml | SGPT, mean ± SE ([3]; males): 13.1 ± 0.7 Units/ml | TOTAL PROTEIN, mean ± SE ([3]; males): 28.2 ± 2.1 mg/mL | RBC, mean ± SE ([4]; females): 817 ± 58 10^6 /ml | WBC, mean ± SE ([4]; females): 179 ± 26 10^2 /ml | RBC, mean ± SE ([4]; males): 657 ± 60 10^6 /ml | WBC, mean ± SE ([4]; males): 140 ± 10 10^2 /ml | ED50 [5]: 298 mg/kg | Hot-plate Test (R max/Ro), mean ± SE [6]: 1.62 ± 0.26 | Siegmund Test, number of writhings for a 20 min. period, mean ± SE [7]: 34 ± 3 | Responses to algogenic stimuli (noci-ceptive stimuli): not suppressed | Number of deaths at day 3 ([8]; daily dose 450 mg/k): 1 | Total number of deaths ([8]; daily dose 450 mg/k): 1/10 | Number of deaths at day 2 ([8]; daily dose 900 mg/k): 1 | Total number of deaths ([8]; daily dose 900 mg/k): 1/10 | ED50 [9]: 189 mg/kg | % showing BSP plasma levels >160 mcg/ml ([10]; X^2 = 0.43, N.S.): 5.5% | rats showing BSP plasma levels >160 mcg/ml, number/tested ([10]; X^2 = 0.43, N.S.): 1/18 | % showing BSP plasma levels >80 mcg/ml ([10]; X^2 = 0.7, N.S.): 28% | rats showing BSP plasma levels >80 mcg/ml, number/tested ([10]; X^2 = 0.7, N.S.): 5/18 | organ weight, Adrenal glands ([11]; females): 4.6 ± 0.1 10^-2 grams | organ weight, Brain ([11]; females): 19.4 ± 1 10^-1 grams | organ weight, Heart ([11]; females): 7.3 ± 0.8 10^-1 grams | organ weight, Kidneys ([11]; females): 18.2 ± 0.4 10^-1 grams | organ weight, Liver ([11]; females): 10.1 ± 0.3 grams | organ weight, Lungs ([11]; females): 14.2 ± 1.1 10^-1 grams | organ weight, Spleen ([11]; females): 6.5 ± 0.2 10^-1 grams | organ weight, Adrenal glands ([11]; males): 3.7 ± 0.5 10^-2 grams | organ weight, Brain ([11]; males): 13.4 ± 0.4 10^-1 grams | organ weight, Heart ([11]; males): 7.1 ± 0.4 10^-1 grams | organ weight, Kidneys ([11]; males): 18.3 ± 0.4 10^-1 grams | organ weight, Liver ([11]; males): 9.7 ± 0.9 grams | organ weight, Lungs ([11]; males): 9.1 ± 0.8 10^-1 grams | organ weight, Spleen ([11]; males): 6.3 ± 0.3 10^-1 grams
